The subject of experiment [1] is PIL5 cells. Briefly: Prevention of cell replication of PIL5 cells by anti-mitotic and pro-apoptotic agent. It is filed as cell-based, human. The conditions noted are these: at the doses tested. The protocol: Studies on the effects of a variety of parameters, i.e., concentration of vinblastine, time of treatment with vinblastine, fetal bovine serum (FBS) concentration, glycerol concentration in the presence or absence of DMSO, SMSO concentration, cell density, on interferon sensitivity of frozen cells were conducted to determine optimal conditions. It may not be apparent from the results shown in FIG. 12 why vinblastine instead of 5-FU was chosen as the more preferred anti-mitotic and pro-apoptotic agent for treatment of PIL5 cells prior to freezing.

The test system of experiment [2] is PIL5 cells. The experiment can be described thus: Luciferase gene reporter assay for Type I interferon: IFN sensitivity of PIL5 cells treated with anti-mitotic agent, frozen and thawed. The experiment is classed as cell-based, human. The protocol: • 1. Remove protective cover from the sample preparation micro-plate (Plate A). • 2. Add 100 μl of the diluent (RPMI 1640 medium without serum) to wells A1 through A6 and B1 through B6 of the sample preparation plate (Plate A). • 3. Add 100 μl of the interferon (IFN) reference preparation to wells A1 and B1 of Plate A containing 100 μl of diluent. • 4. Carry out serial two-fold dilutions of the IFN reference preparation in Plate A from wells A1 and B1 through wells A6 and B6 using a multi-channel micro-pipette. Sample preparation • 1. Add 100 μl of the diluent to the wells of the sample preparation plate (Plate A) where required. • 2. Dilute samples to be tested if the estimated IFN titer of the samples is greater than 100 IU/ml. • 3. Dilute samples appropriately in the sample preparation micro-plate (Plate A) Assay Procedure • 1. Rapidly thaw the 96-well PIL5 assay micro-plate (Plate B) on a flat surface with the cover uppermost. A water-bath set at 37° C. can be used for convenience. • 2. Dry protective cover with a paper hand towel, taking care to maintain the label uppermost. • 3. Carefully remove protective cover from the PIL5 assay micro-plate (Plate B) while maintaining the cover uppermost. • 4. Add 75 μl of each of the serial two-fold dilutions of the reference preparation to wells A1 and B1 through wells A6 and B6 of the PIL5 assay micro-plate (Plate B) using a multi-channel micro-pipette. • 5. Add 75 μl of each undiluted or appropriately diluted sample to the PIL assay micro-plate […]. • 6. Incubate the PIL5 assay micro-plate (Plate B) overnight at 37° C. in an atmosphere of 5% CO2 in air. A CO2 incubator can be used for convenience. • 7. […] Determine the luminescence of the samples using a micro-plate luminometer (LUMICOUNT, Packard). […] Plot standard curve from the mean of the luminescence readings for each dilution of the IFN reference preparation calibrated against the NIH international reference standard for HuIFN-α (G-023-901-527) using Microsoft EXCEL. • 2. […]

As for `O=c1[nH]cc(F)c(=O)[nH]1` [5-FU, 5-fluorouracil], the preventing cell replication result in experiment [1] was “not found to be sufficiently effective”. Also, the “maintaining interferon sensitivity of frozen PIL5 cells” value in experiment [2] (treatment prior to freezing, compared with vinblastine, FIG. 12) was “superior to vinblastine”.

In the case of `CC[C@]1(O)C[C@@H]2CN(CCc3c([nH]c4ccccc34)[C@@](C(=O)OC)(c3cc4c(cc3OC)N(C)[C@H]3[C@@](O)(C(=O)OC)[C@H](OC(C)=O)[C@]5(CC)C=CCN6CC[C@]43[C@@H]65)C2)C1` [vinblastine], the “IFN sensitivity of PIL5 cells after treatment and freezing” value in experiment [2] (100 μM vinblastine, 1.0 hour at 37° C., one month at −20° C., FIG. 11) was “retain full IFN sensitivity”.

With `C[S+](C)[O-]` [DMSO, dimethyl sulfoxide], the “protection of cells frozen at −20° C. and effect on sensitivity to IFN” value in experiment [2] (no special freezing or thawing techniques, FIG. 11) is listed as “without adversely affecting their sensitivity to IFN”.
